Assay results: paper PMC3909494 (Molecular cell, 2013)

Molecular target: T1, TmMre11 (Thermotoga maritima Mre11 (1–324)) (Thermotoga maritima, UniProt Q9X1X0)
T1 sequence (Q9X1X0 1-324): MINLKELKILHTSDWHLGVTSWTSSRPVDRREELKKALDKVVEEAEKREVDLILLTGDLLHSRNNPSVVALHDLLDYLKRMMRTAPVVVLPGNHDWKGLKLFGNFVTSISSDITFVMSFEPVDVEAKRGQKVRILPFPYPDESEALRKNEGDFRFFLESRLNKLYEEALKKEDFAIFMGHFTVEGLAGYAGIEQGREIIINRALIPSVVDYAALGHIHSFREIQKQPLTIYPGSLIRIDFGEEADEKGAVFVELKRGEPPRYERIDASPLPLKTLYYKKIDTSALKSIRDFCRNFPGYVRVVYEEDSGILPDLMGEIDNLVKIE
Test: exonuclease assay
Assay type: biochemical
Conditions: conditions only in supplement

inhibition of exonuclease activity: Nuclease assays using TmMre11
Structure (SMILES): N=C1NC(=O)/C(=C/c2ccc(O)cc2)S1 [mirin]
